For orientation: pEC50 means −log10 of the EC50, conventionally taken in molar units.

Each structure is given as a SMILES string. pEC50: −log10 of the molar value.

For data set [1], the system named is mice. The data set is described as follows: Acute toxicity after oral administration of a single dose. Type of data set: in vivo. The following applies: observation period 14 days; for animals died (mortality): single dose 500 mg/kg; for Approximate acute toxicity: single dose, groups of 10. As to the method: The acute toxicity of the substances being tested was determined approximately in groups of 10 mice after oral administration of a single dose (observation period 14 days): […]

In data set [2] the test system is platelet-rich plasma of healthy test subjects. Put plainly: Antithrombotic activity: collagen-induced thrombocyte aggregation (BORN and CROSS method). Type of data set: cell-based. The following applies: Homo sapiens, 10 min, plasma incubated for 10 minutes with the substance at 37° C., read-out: EC50 (50% change in the "optical density" in terms of an inhibition of aggregation). The procedure:
Thrombocyte aggregation is measured using the BORN and CROSS method (J. Physiol. 170, 397 (1964)) in the platelet-rich plasma of healthy test subjects. To inhibit coagulation, 3.14% sodium citrate is added to the blood in a ratio by volume of 1:10.
The pattern of the decrease in optical density of the platelet suspension is photometrically measured and recorded after the addition of aggregation-inducing substance. The rate of aggregation is determined from the angle of inclination of the density curve. The point on the curve at which there is maximum transmittance is used to calculate the "optical density".
The quantity of collagen is kept as small as possible but sufficient to produce an irreversible reaction curve. The standard commercial collagen produced by Hormonchemie of Munich is used. Before the addition of collagen, the plasma is incubated for 10 minutes with the substance at 37° C.
From the measurements obtained, an EC50 is determined graphically, showing a 50% change in the "optical density" in terms of an inhibition of aggregation.

For the molecule `Cn1c(CCNS(=O)(=O)c2ccccc2)ccc1C(=O)CCC(=O)O` [Substance A, 4-[2-(2-Benzenesulphonylamino-ethyl)-1-methylpyrrol-5-yl]-4-oxybutyric acid], in data set [1], the “animals died (mortality)” value is on record as 0 out of 10 animals and the Approximate acute toxicity came out at 500 mg/kg. Further, the pEC50 in data set [2] was 5.46.
In the case of `Cn1c(CCNS(=O)(=O)c2ccc(Cl)cc2)ccc1C(=O)CCC(=O)O` [Substance B, 4-[2-(2-(p-chlorobenzenesulphonylamino)-ethyl)-1-methylpyrrol-5-yl]-4-oxybutyric acid], in data set [1], the “animals died (mortality)” value is on record as 0 out of 10 animals and the Approximate acute toxicity was determined as 500 mg/kg. In addition, the pEC50 in data set [2] is 6.40.
`Cn1c(CCNS(=O)(=O)c2cccs2)ccc1C(=O)CCC(=O)O` [Substance C, 4-[2-(2-thiophen-2-yl-sulphonylamino-ethyl)-1-methylpyrrol-5-yl]-4-oxybutyric acid]: in data set [1], the “animals died (mortality)” value is 0 out of 10 animals and the Approximate acute toxicity was found to be 500 mg/kg. Also, in data set [2], the pEC50 was 6.41.
In the case of `Cn1c(CCNS(=O)(=O)c2ccc(F)cc2)ccc1C(=O)CCC(=O)O` [Substance D, 4-[2-(2-(p-Fluorobenzenesulphonylamino)-ethyl)-1-methylpyrrol-5-yl]-4-oxybutyric acid], in data set [1], the “animals died (mortality)” value was 0 out of 10 animals and the Approximate acute toxicity turned out to be 500 mg/kg. For the same molecule, the pEC50 in data set [2] was 6.44.
Regarding `Cn1c(CCNS(=O)(=O)c2ccccc2)ccc1C1=NNC(=O)CC1` [Substance E, 6-[2-(2-Benzenesulphonylamino-ethyl)-1-methylpyrrol-5-yl]-4,5-dihydro-3(2H)-pyridazinone], in data set [1], the “animals died (mortality)” value was 0 out of 10 animals and the Approximate acute toxicity was 500 mg/kg. Also, the pEC50 in data set [2] is 5.54.

(Values after patent publication US5008290A, “Sulphonamidoethyl compounds and pharmaceutical compositions comprising these compounds” (Dr. Karl Thomae GmbH, priority 1986, dated 1991).)
